Test results as given in publication PMC10004634 (PLOS ONE, 2023).

Tests used:
BTK = BTK (Homo sapiens, UniProt Q06187); assay: KINOMEscan binding assay; conditions: 300 nM; read-out: inhibition of kinase binding (KINOMEscan)
TMD8 cells = assay: SILAC phosphoproteomic analysis
Experimental: For differential SILAC encoding, both cells were grown in arginine- and lysine-deficient culture medium containing light (Arg0/Lys0) or heavy (Arg10/Lys8) isotopic forms of L-arginine and L-lysine (SILAC medium). […] For mass spectrometric analysis, phosphopeptide-enriched samples were loaded onto a reversed phase analytical column, resolved by an acetonitrile gradient using a nanoflow HPLC system and directly electrosprayed via a nanoelectrospray ion source into an LTQ-Orbitrap Velos mass spectrometer (Thermo Fisher Scientific). […] A false discovery rate (FDR) of 0.01 was selected for protein and peptide identification, and a posterior error probability of ≤0.1 for each peptide-to-spectral match was required. The resulting list of phosphosites exported from the MaxQuant software was filtered for class-I sites (only serine, threonine, or tyrosine assignments with a localization probability of ≥0.75) [33] and used for all subsequent biostatistical analysis. […] Gaussian regression analysis on the histogram plot of these log2-transformed ratios was performed using Sigmaplot (version 10.0; Systat Software Inc.). The obtained values for the mean and standard deviation across the whole quantitative dataset were used to determine thresholds for significant regulation of at least ±2.5 σ. […] Furthermore, only phosphosites conforming to this criterion and showing consistent regulation in both biological replicates were considered as regulated.

[1] = system: other BioMAP systems such as the T-cell and fibroblast activation systems; assay: BioMAP Diversity PLUS profiling, other evaluation systems; assay type: cell-based, human; conditions: 120, 370, 1100, 3300 nM
Experimental: In brief, cultures with one or more primary cell types from healthy human donors were treated with sets of stimulators specific to the cell subsets, and the optimized biomarker readouts for each system were measured by ELISA and other techniques, as listed in S1 Table. The assays included positive and negative controls as well as vehicle control. Results are presented as the log-transformed ratio of biomarker readouts for tirabrutinib-treated samples to vehicle controls.

BTK, sequence (Q06187 whole entry): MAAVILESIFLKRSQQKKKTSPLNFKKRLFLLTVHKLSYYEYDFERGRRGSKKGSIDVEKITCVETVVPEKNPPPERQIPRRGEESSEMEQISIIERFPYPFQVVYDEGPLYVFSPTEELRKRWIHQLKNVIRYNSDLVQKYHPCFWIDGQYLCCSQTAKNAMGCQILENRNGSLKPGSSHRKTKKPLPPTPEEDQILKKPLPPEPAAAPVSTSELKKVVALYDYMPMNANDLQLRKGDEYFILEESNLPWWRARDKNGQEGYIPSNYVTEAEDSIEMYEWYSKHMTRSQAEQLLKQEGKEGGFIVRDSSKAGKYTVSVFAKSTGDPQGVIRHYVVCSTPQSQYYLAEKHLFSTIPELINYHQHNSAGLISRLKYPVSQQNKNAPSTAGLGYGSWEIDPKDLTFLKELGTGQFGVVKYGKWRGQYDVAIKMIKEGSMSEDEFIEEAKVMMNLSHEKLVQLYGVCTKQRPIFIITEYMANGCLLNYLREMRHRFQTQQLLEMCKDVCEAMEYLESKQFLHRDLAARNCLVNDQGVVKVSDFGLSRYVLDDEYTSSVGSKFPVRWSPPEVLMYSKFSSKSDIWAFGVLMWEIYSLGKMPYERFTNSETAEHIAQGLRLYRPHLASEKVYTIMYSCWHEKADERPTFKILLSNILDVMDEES

## CC#CC(=O)N1CC[C@@H](n2c(=O)n(-c3ccc(Oc4ccccc4)cc3)c3c(N)ncnc32)C1 [Tirabrutinib]
BTK
  inhibition at 0.3 µM: 97%
TMD8 cells; 1 μM, 1 h
  reduction of ATF2 phosphorylation on Thr-69: approximately 50%
  reduction of ATF2 phosphorylation on Thr-71: approximately 50%
TMD8 cells; 1 μM, 1 h, ratio <0.679
  number of downregulated phosphorylation sites: 138
TMD8 cells; 1 μM, 1 h, ratio >1.472
  number of upregulated phosphorylation sites: 15
TMD8 cells; AKT1S1 S183
  Tirabrutinib/ctrl. rep. 1: 0.69
  Tirabrutinib/ctrl. rep. 2: 0.65
TMD8 cells; AKT1S1 S202
  Tirabrutinib/ctrl. rep. 1: 1.29
  Tirabrutinib/ctrl. rep. 2: 1.18
TMD8 cells; AKT1S1 S203
  Tirabrutinib/ctrl. rep. 1: 1.16
  Tirabrutinib/ctrl. rep. 2: 1.11
TMD8 cells; AKT1S1 S211
  Tirabrutinib/ctrl. rep. 1: 0.98
  Tirabrutinib/ctrl. rep. 2: 0.82
TMD8 cells; AKT1S1 T246
  Regulation of Phosphorylation Site: ↓
  Tirabrutinib/ctrl. rep. 1: 0.61
  Tirabrutinib/ctrl. rep. 2: 0.51
TMD8 cells; AKT1 S124
  Tirabrutinib/ctrl. rep. 1: 0.97
  Tirabrutinib/ctrl. rep. 2: 1.01
TMD8 cells; AKT1 S129
  Tirabrutinib/ctrl. rep. 1: 1.07
  Tirabrutinib/ctrl. rep. 2: 0.94
TMD8 cells; AKT2 S126
  Tirabrutinib/ctrl. rep. 1: 0.95
  Tirabrutinib/ctrl. rep. 2: 0.95
TMD8 cells; AKT2 T451
  Tirabrutinib/ctrl. rep. 1: 1.00
  Tirabrutinib/ctrl. rep. 2: 0.94
TMD8 cells; ATF2 S112
  Tirabrutinib/ctrl. rep. 1: 1.07
  Tirabrutinib/ctrl. rep. 2: 0.83
TMD8 cells; ATF2 T69
  Regulation of Phosphorylation Site: ↓
  Tirabrutinib/ctrl. rep. 1: 0.53
  Tirabrutinib/ctrl. rep. 2: 0.53
TMD8 cells; ATF2 T71
  Regulation of Phosphorylation Site: ↓
  Tirabrutinib/ctrl. rep. 1: 0.50
  Tirabrutinib/ctrl. rep. 2: 0.53
TMD8 cells; CARD11 S483
  Tirabrutinib/ctrl. rep. 1: 0.72
  Tirabrutinib/ctrl. rep. 2: 1.26
TMD8 cells; CARD11 S529
  Tirabrutinib/ctrl. rep. 1: 0.89
  Tirabrutinib/ctrl. rep. 2: 0.90
TMD8 cells; CARD11 S554
  Tirabrutinib/ctrl. rep. 2: 0.79
TMD8 cells; CARD11 S610
  Tirabrutinib/ctrl. rep. 1: 0.99
  Tirabrutinib/ctrl. rep. 2: 0.96
TMD8 cells; CARD11 S622
  Tirabrutinib/ctrl. rep. 1: 1.01
  Tirabrutinib/ctrl. rep. 2: 1.05
TMD8 cells; CARD11 S903
  Tirabrutinib/ctrl. rep. 1: 1.34
  Tirabrutinib/ctrl. rep. 2: 1.37
TMD8 cells; CARD11 S942
  Tirabrutinib/ctrl. rep. 1: 0.92
  Tirabrutinib/ctrl. rep. 2: 0.78
TMD8 cells; ELK1 S501
  Regulation of Phosphorylation Site: ↓
  Tirabrutinib/ctrl. rep. 1: 0.33
  Tirabrutinib/ctrl. rep. 2: 0.48
TMD8 cells; ERF S327
  Regulation of Phosphorylation Site: ↓
  Tirabrutinib/ctrl. rep. 1: 0.59
  Tirabrutinib/ctrl. rep. 2: 0.50
TMD8 cells; ERF T526
  Tirabrutinib/ctrl. rep. 1: 0.85
  Tirabrutinib/ctrl. rep. 2: 0.87
TMD8 cells; ETV3 S245
  Regulation of Phosphorylation Site: ↓
  Tirabrutinib/ctrl. rep. 1: 0.30
  Tirabrutinib/ctrl. rep. 2: 0.28
TMD8 cells; ETV3 S250
  Regulation of Phosphorylation Site: ↓
  Tirabrutinib/ctrl. rep. 1: 0.30
  Tirabrutinib/ctrl. rep. 2: 0.28
TMD8 cells; HSP27 S15
  Tirabrutinib/ctrl. rep. 1: 0.59
  Tirabrutinib/ctrl. rep. 2: 1.31
TMD8 cells; HSP27 S78
  Tirabrutinib/ctrl. rep. 1: 0.67
  Tirabrutinib/ctrl. rep. 2: 0.69
TMD8 cells; HSP27 S82
  Regulation of Phosphorylation Site: ↓
  Tirabrutinib/ctrl. rep. 1: 0.62
  Tirabrutinib/ctrl. rep. 2: 0.60
TMD8 cells; IKBKG S455
  Tirabrutinib/ctrl. rep. 1: 1.17
  Tirabrutinib/ctrl. rep. 2: 0.97
TMD8 cells; MAPK1 Y187
  Regulation of Phosphorylation Site: ↓
  Tirabrutinib/ctrl. rep. 1: 0.34
  Tirabrutinib/ctrl. rep. 2: 0.47
TMD8 cells; MAPK3 Y204
  Regulation of Phosphorylation Site: ↓
  Tirabrutinib/ctrl. rep. 1: 0.26
  Tirabrutinib/ctrl. rep. 2: 0.42
TMD8 cells; NHE1 S693
  Tirabrutinib/ctrl. rep. 1: 1.21
  Tirabrutinib/ctrl. rep. 2: 1.00
TMD8 cells; NHE1 S703
  Regulation of Phosphorylation Site: ↓
  Tirabrutinib/ctrl. rep. 1: 0.55
  Tirabrutinib/ctrl. rep. 2: 0.51
TMD8 cells; NHE1 S785
  Tirabrutinib/ctrl. rep. 1: 1.11
  Tirabrutinib/ctrl. rep. 2: 1.29
TMD8 cells; NHE1 S796
  Tirabrutinib/ctrl. rep. 1: 0.62
  Tirabrutinib/ctrl. rep. 2: 0.78
TMD8 cells; PEA15 S82
  Tirabrutinib/ctrl. rep. 1: 0.88
  Tirabrutinib/ctrl. rep. 2: 0.96
TMD8 cells; PEA15 S137
  Regulation of Phosphorylation Site: ↓
  Tirabrutinib/ctrl. rep. 1: 0.35
  Tirabrutinib/ctrl. rep. 2: 0.29
TMD8 cells; PIK3AP1 S642
  Tirabrutinib/ctrl. rep. 1: 0.94
  Tirabrutinib/ctrl. rep. 2: 1.03
TMD8 cells; PIK3AP1 S759
  Tirabrutinib/ctrl. rep. 1: 0.83
  Tirabrutinib/ctrl. rep. 2: 0.69
TMD8 cells; PIK3AP1 T151
  Tirabrutinib/ctrl. rep. 1: 1.07
  Tirabrutinib/ctrl. rep. 2: 1.02
TMD8 cells; PIK3AP1 Y570
  Regulation of Phosphorylation Site: ↓
  Tirabrutinib/ctrl. rep. 1: 0.51
  Tirabrutinib/ctrl. rep. 2: 0.41
TMD8 cells; PLCG2 S160
  Tirabrutinib/ctrl. rep. 1: 0.86
  Tirabrutinib/ctrl. rep. 2: 1.09
TMD8 cells; PLCG2 S443
  Tirabrutinib/ctrl. rep. 1: 0.84
  Tirabrutinib/ctrl. rep. 2: 1.41
TMD8 cells; PLCG2 Y753
  Tirabrutinib/ctrl. rep. 1: 0.79
  Tirabrutinib/ctrl. rep. 2: 0.55
TMD8 cells; PRKCB S241
  Regulation of Phosphorylation Site: ↑
  Tirabrutinib/ctrl. rep. 1: 3.02
  Tirabrutinib/ctrl. rep. 2: 1.76
TMD8 cells; PRKCB S673
  Tirabrutinib/ctrl. rep. 1: 0.88
  Tirabrutinib/ctrl. rep. 2: 0.60
TMD8 cells; PRKCB T500
  Tirabrutinib/ctrl. rep. 1: 0.71
  Tirabrutinib/ctrl. rep. 2: 1.08
TMD8 cells; PRKCB T641
  Tirabrutinib/ctrl. rep. 1: 1.00
  Tirabrutinib/ctrl. rep. 2: 1.01
TMD8 cells; PRKCB T642
  Tirabrutinib/ctrl. rep. 1: 0.99
  Tirabrutinib/ctrl. rep. 2: 1.92
TMD8 cells; PRKD2 S198
  Tirabrutinib/ctrl. rep. 1: 0.55
  Tirabrutinib/ctrl. rep. 2: 0.69
TMD8 cells; PRKD2 S206
  Regulation of Phosphorylation Site: ↓
  Tirabrutinib/ctrl. rep. 1: 0.32
  Tirabrutinib/ctrl. rep. 2: 0.48
TMD8 cells; PRKD2 S214
  Regulation of Phosphorylation Site: ↓
  Tirabrutinib/ctrl. rep. 1: 0.46
  Tirabrutinib/ctrl. rep. 2: 0.48
TMD8 cells; PRKD2 S710
  Regulation of Phosphorylation Site: ↓
  Tirabrutinib/ctrl. rep. 1: 0.45
  Tirabrutinib/ctrl. rep. 2: 0.56
TMD8 cells; PRKD3 S31
  Tirabrutinib/ctrl. rep. 1: 0.76
  Tirabrutinib/ctrl. rep. 2: 0.85
TMD8 cells; PRKD3 S213
  Tirabrutinib/ctrl. rep. 1: 1.40
  Tirabrutinib/ctrl. rep. 2: 1.11
TMD8 cells; PRKD3 S364
  Tirabrutinib/ctrl. rep. 1: 0.98
  Tirabrutinib/ctrl. rep. 2: 0.97
TMD8 cells; PRKD3 S395
  Tirabrutinib/ctrl. rep. 1: 0.77
  Tirabrutinib/ctrl. rep. 2: 0.65
TMD8 cells; PRKD3 S735
  Regulation of Phosphorylation Site: ↓
  Tirabrutinib/ctrl. rep. 1: 0.41
  Tirabrutinib/ctrl. rep. 2: 0.43
TMD8 cells; RAF1 S1055
  Regulation of Phosphorylation Site: ↓
  Tirabrutinib/ctrl. rep. 1: 0.61
  Tirabrutinib/ctrl. rep. 2: 0.61
TMD8 cells; RELA S203
  Tirabrutinib/ctrl. rep. 1: 0.85
  Tirabrutinib/ctrl. rep. 2: 1.23
TMD8 cells; RELA S238
  Tirabrutinib/ctrl. rep. 1: 0.84
  Tirabrutinib/ctrl. rep. 2: 1.07
TMD8 cells; RPS6KA1 S230
  Tirabrutinib/ctrl. rep. 1: 0.93
  Tirabrutinib/ctrl. rep. 2: 0.89
TMD8 cells; RPS6KA1 S741
  Regulation of Phosphorylation Site: ↓
  Tirabrutinib/ctrl. rep. 1: 0.61
  Tirabrutinib/ctrl. rep. 2: 0.59
TMD8 cells; RPS6KA1 T234
  Tirabrutinib/ctrl. rep. 1: 0.93
  Tirabrutinib/ctrl. rep. 2: 0.96
TMD8 cells; TSC2 S1411
  Tirabrutinib/ctrl. rep. 1: 1.07
  Tirabrutinib/ctrl. rep. 2: 1.15
TMD8 cells; TSC2 S1418
  Tirabrutinib/ctrl. rep. 1: 1.12
  Tirabrutinib/ctrl. rep. 2: 1.10
TMD8 cells; TSC2 S1799
  Tirabrutinib/ctrl. rep. 1: 1.15
  Tirabrutinib/ctrl. rep. 2: 0.89
TMD8 cells; YBX1 S102
  Regulation of Phosphorylation Site: ↓
  Tirabrutinib/ctrl. rep. 1: 0.60
  Tirabrutinib/ctrl. rep. 2: 0.46
TMD8 cells; YBX1 S165
  Tirabrutinib/ctrl. rep. 1: 0.91
  Tirabrutinib/ctrl. rep. 2: 0.96
TMD8 cells; YBX1 S167
  Tirabrutinib/ctrl. rep. 1: 1.07
[1]
  effect in other BioMAP evaluation systems: no significant effect
